The results in this text go back to publication PMC4579270, “Identification and Characterization of an Irreversible Inhibitor of CDK2” (Chemistry & Biology, 2015).

Where two headings read alike, the source gives them in different places.

Holding throughout (test): Dundee kinase screen re-test (standard format and 4 hour pre-incubation)
What all share (assay type): biochemical

Assay [1] has as its target MLK1 (Homo sapiens, UniProt P80192). The conditions noted are these: MLK1, 0.5µM. The essentials: (§1)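 Selectivity panel of 131 protein kinases, inhibitor tested at a single concentration of 1 µM; values are % kinase activity remaining, mean of duplicates. Re-test of selected kinases used 0.5 µM in the standard format and again after a 4 hour pre-incubation with the inhibitor.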

The target in assay [2] is T1, TTK (Homo sapiens, UniProt P33981).
T1 sequence (P33981 1-857): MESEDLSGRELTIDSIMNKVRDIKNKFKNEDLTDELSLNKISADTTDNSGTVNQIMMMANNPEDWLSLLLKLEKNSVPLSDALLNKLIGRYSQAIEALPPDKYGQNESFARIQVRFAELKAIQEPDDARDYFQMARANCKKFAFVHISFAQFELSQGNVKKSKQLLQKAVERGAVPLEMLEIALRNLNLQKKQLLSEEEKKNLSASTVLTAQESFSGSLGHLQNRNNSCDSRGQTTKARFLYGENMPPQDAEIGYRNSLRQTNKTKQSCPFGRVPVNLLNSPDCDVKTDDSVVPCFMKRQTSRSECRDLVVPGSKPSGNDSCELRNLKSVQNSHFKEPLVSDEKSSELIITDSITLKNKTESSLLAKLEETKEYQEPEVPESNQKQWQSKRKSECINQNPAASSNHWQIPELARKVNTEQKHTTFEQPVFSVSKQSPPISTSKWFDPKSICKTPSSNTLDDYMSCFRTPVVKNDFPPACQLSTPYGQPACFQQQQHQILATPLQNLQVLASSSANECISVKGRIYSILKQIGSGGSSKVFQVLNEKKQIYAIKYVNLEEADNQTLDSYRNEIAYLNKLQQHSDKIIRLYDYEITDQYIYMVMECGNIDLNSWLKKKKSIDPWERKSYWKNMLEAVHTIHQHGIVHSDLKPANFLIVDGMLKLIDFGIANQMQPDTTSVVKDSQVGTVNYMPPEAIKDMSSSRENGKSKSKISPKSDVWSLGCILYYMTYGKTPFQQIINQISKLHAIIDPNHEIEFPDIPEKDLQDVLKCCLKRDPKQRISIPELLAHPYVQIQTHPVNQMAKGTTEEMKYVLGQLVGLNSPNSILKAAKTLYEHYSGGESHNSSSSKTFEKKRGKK
The essentials:
as §1

The target of assay [3] is IRR (Homo sapiens, UniProt P14616). A digest of the protocol: as §1
Assay [4] addresses T2, EPH-B3 (Homo sapiens, UniProt P54753).
T2 sequence (P54753 34-998): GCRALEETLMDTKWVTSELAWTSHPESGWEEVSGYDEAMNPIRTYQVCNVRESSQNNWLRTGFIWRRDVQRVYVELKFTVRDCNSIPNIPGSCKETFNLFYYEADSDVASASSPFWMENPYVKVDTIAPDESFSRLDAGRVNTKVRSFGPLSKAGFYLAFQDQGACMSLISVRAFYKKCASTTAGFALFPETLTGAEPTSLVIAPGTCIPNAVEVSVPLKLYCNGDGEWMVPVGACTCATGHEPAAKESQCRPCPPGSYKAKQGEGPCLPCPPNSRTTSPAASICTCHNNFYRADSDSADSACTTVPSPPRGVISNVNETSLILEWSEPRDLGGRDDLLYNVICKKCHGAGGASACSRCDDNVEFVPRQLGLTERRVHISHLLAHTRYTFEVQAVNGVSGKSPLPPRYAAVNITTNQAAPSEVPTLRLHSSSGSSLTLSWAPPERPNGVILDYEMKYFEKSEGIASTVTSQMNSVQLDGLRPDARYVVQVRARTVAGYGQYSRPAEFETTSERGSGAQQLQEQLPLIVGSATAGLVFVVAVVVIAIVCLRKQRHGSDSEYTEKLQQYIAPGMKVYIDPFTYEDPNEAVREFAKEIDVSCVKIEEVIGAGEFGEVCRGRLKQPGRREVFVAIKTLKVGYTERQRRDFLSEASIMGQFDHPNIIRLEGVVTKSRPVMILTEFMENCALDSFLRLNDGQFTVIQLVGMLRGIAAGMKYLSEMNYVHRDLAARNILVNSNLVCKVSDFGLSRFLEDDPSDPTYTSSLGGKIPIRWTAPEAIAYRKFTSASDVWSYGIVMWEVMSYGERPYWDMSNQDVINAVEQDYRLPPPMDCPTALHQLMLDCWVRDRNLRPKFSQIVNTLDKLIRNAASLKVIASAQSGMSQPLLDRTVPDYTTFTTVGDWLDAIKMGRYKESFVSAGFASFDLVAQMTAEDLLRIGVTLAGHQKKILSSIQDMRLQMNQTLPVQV
The conditions noted are these: EPH-B3, 0.5µM. A digest of the protocol:
as §1

Assay [5] addresses JNK3 (Homo sapiens, UniProt P53779). Conditions: JNK3, 0.5µM. The essentials: as §1
The target of assay [6] is PAK4 (Homo sapiens, UniProt O96013). Conditions: PAK4, 0.5µM. A digest of the protocol:
as §1

Assay [7] has as its target IR (Homo sapiens, UniProt P06213). A digest of the protocol:
as §1

The mark [8] stands for this setting: 4hr RT preincubation, read-out: %Remaining activity at 0.5µM NU6300 - 4hr RT preincubation.
The mark [9] stands for this setting: usual format, read-out: %Remaining activity at 0.5µM NU6300 - Usual assay format.

Sequence of PAK4 (O96013 whole entry): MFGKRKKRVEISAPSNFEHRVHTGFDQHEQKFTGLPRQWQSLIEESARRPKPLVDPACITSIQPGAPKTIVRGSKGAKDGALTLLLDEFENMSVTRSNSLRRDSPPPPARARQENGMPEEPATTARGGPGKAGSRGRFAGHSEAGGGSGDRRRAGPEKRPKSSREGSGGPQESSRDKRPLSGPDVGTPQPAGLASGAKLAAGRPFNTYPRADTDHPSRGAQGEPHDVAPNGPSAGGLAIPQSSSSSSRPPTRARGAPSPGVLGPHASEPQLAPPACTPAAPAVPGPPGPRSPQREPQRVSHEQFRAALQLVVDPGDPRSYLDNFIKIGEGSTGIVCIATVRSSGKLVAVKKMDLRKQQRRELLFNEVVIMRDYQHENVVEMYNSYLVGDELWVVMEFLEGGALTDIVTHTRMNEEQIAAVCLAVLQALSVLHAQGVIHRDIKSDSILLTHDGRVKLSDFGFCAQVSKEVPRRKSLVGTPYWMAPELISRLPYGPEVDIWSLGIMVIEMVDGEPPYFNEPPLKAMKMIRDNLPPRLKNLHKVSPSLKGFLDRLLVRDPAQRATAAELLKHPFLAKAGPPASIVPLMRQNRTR
Sequence of MLK1 (P80192 whole entry): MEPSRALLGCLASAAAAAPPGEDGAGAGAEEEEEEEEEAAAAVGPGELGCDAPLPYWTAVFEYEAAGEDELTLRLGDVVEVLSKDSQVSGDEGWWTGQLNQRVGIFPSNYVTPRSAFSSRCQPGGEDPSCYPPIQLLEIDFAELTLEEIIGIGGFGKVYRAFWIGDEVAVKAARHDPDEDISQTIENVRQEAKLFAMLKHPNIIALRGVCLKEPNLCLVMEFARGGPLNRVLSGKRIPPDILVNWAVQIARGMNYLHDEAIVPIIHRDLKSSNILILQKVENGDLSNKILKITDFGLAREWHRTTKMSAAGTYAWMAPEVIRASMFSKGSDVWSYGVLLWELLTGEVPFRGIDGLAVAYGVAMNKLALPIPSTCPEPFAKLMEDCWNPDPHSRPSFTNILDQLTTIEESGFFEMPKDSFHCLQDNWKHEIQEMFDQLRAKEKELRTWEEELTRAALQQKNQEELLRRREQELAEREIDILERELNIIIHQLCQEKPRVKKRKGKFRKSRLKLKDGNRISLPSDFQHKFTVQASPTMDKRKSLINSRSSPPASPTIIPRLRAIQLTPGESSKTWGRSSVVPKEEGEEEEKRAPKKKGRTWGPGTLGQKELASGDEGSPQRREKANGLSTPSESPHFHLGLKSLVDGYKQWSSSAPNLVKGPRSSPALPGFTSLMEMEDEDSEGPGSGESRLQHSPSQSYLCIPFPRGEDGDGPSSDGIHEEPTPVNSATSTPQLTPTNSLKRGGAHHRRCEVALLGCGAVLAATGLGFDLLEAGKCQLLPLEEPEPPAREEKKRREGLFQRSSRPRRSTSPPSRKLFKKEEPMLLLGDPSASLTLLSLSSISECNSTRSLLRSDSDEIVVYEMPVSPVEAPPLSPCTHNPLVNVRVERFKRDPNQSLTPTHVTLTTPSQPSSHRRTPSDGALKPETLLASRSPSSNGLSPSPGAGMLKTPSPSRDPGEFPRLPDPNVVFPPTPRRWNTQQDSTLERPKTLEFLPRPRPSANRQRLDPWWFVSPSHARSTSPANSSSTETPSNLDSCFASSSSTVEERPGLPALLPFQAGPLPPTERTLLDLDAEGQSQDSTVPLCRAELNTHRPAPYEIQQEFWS
Sequence of JNK3 (P53779 whole entry): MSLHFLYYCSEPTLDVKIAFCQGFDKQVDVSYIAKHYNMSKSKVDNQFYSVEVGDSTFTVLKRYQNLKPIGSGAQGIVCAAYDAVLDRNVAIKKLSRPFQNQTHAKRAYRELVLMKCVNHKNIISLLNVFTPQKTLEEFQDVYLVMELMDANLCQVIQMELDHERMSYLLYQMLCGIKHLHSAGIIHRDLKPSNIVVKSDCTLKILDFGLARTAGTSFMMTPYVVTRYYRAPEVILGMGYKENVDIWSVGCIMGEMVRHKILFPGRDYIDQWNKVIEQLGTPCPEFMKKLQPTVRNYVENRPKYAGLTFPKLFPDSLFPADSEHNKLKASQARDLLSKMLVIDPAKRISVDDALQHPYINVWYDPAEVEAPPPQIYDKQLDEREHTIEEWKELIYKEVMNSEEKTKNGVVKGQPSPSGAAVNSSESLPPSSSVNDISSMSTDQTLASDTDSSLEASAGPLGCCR
Sequence of IRR (P14616 27-1297): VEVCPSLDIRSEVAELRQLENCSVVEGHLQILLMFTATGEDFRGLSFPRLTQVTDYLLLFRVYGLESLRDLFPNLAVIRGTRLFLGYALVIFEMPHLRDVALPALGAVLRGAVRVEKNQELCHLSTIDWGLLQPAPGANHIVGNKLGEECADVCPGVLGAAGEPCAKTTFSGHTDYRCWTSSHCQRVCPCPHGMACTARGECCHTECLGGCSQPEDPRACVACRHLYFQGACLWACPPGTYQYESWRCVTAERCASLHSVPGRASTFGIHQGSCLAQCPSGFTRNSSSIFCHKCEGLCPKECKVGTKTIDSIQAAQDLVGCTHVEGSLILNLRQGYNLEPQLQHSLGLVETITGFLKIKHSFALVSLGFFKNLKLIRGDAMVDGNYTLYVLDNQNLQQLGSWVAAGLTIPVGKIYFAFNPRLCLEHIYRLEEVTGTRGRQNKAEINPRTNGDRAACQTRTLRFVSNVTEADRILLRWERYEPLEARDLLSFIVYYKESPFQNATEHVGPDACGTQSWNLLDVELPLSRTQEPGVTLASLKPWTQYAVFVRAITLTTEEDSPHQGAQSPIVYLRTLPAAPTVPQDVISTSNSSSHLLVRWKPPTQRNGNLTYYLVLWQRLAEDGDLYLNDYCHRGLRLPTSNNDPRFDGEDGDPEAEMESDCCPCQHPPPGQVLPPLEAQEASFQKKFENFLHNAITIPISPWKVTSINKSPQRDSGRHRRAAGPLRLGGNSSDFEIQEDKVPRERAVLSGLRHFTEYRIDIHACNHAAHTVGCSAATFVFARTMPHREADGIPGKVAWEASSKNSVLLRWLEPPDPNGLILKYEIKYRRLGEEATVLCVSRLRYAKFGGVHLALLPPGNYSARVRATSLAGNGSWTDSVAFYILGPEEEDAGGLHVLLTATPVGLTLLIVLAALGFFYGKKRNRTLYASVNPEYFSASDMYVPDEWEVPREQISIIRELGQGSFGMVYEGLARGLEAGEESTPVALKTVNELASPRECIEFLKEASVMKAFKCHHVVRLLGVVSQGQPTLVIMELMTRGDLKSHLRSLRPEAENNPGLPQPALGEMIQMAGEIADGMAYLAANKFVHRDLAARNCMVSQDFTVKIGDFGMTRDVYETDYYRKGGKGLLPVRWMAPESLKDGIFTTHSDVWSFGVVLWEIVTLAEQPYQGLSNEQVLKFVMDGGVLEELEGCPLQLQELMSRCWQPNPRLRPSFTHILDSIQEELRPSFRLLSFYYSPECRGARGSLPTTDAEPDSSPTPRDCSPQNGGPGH
Sequence of IR (P06213 28-1382): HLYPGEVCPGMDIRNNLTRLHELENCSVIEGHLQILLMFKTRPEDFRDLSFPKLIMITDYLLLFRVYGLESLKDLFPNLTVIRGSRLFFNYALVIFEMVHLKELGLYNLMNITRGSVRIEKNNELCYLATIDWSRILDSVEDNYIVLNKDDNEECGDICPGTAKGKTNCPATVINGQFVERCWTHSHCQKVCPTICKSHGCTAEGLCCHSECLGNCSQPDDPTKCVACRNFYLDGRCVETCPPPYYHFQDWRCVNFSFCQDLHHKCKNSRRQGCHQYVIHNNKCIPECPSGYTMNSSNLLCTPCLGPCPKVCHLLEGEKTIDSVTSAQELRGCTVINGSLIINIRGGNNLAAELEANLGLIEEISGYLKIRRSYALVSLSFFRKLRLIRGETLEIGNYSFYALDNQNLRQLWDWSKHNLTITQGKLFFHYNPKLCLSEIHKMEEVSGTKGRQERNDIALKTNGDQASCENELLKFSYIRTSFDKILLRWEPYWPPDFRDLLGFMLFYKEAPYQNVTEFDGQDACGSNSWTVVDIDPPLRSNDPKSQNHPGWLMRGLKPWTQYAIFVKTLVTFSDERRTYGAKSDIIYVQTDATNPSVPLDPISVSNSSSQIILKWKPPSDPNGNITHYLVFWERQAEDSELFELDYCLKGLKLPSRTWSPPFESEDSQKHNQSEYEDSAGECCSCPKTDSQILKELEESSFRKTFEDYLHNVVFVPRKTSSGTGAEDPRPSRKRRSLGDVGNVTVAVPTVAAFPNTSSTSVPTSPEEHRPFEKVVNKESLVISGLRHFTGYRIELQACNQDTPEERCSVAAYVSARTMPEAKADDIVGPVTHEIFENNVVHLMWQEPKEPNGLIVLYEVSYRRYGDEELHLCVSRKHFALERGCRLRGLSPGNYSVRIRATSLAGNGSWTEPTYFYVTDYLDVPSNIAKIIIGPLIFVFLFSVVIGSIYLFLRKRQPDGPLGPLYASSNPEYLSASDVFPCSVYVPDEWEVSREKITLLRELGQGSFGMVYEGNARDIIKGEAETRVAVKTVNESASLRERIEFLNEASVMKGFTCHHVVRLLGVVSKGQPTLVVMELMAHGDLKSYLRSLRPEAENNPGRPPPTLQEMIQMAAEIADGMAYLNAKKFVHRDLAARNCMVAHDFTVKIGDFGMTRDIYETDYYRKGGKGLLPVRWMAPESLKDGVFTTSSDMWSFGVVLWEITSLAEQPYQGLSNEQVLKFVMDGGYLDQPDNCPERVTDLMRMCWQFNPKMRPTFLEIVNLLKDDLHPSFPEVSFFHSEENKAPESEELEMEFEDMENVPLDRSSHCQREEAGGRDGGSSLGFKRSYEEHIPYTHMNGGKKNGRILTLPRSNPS

For `C=CS(=O)(=O)c1ccc(Nc2nc(OCC3CCCCC3)c3nc[nH]c3n2)cc1` [NU6300, 6-(cyclohexylmethoxy)-N-(4-(vinylsulfonyl)phenyl)-9H-purin-2-amine], the remaining activity (as a rule, what remains of the control signal, in per cent) at 0.5 µM in assay [1] (setting [8]) amounted to 29%; in assay [1] (setting [9]) it was 4%; in assay [2] (setting [8]), 47%; in assay [2] (setting [9]) it was 41%; in assay [3] (setting [8]), 45%; in assay [3] (setting [9]), 73%. In addition, the remaining activity at 0.5 µM in assay [4] (setting [8]) is 17%; in assay [4] (setting [9]) it was 12%; in assay [5] (setting [8]), 98%; in assay [5] (setting [9]), 53%; in assay [6] (setting [8]), 82%; in assay [6] (setting [9]) it was 34%. In addition, the remaining activity at 0.5 µM came out at 58% in assay [7] (setting [8]) and 48% in assay [7] (setting [9]).
